Test results reported in patent publication US20120058989A1, “ANTIBACTERIAL FLUOROQUINOLONE ANALOGS” (Achaogen, Inc., priority 2008, published 2012).
≈ marks a conversion by molar mass, not a printed value.

Legend:
Assay in all cases: MIC, CLSI broth microdilution
Assay type in all cases: cell-based
[1] = system: S. aureus ASAU001 (Fluoroquinolone-susceptible, ATCC29213); conditions: Staphylococcus aureus, Table 2, read-out: MIC ASAU 001
Outline: (§1)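 Broth microdilution per CLSI M7-A7, with serial two-fold compound dilutions in Mueller Hinton Broth mixed 1:1 with inoculum. Colonies from a previous-day agar plate were suspended in saline to a final 5×10^5 CFU/mL. Plates were incubated 20 hours at 35° C. in ambient air.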

[2] = system: S. pneumoniae ASPN001 (Fluoroquinolone-susceptible, ATCC49619); conditions: Streptococcus pneumoniae, Table 2, read-out: MIC ASPN 001
Outline: as §1

[3] = system: S. pneumoniae ASPN1027 (Fluoroquinolone-resistant); conditions: Streptococcus pneumoniae, Table 2, read-out: MIC ASPN 1027
Outline: as §1

[4] = system: E. coli AECO066 (Fluoroquinolone-resistant); conditions: Escherichia coli, Table 2, read-out: MIC AECO 066
Outline: as §1

[5] = system: P. aeruginosa APAE001 (Fluoroquinolone-susceptible, ATCC27853); conditions: Pseudomonas aeruginosa, Table 2, read-out: MIC APAE 001
Outline: as §1

[6] = system: A. baumannii AABA1065 (Fluoroquinolone-susceptible); conditions: Acinetobacter baumannii, Table 2, read-out: MIC AABA 1065
Outline: as §1

[7] = system: A. baumannii AABA1009 (Fluoroquinolone-resistant); conditions: Acinetobacter baumannii, Table 2, read-out: MIC AABA 1009
Outline: as §1

[8] = system: S. aureus ASAU1031 (Fluoroquinolone-resistant); conditions: Staphylococcus aureus, Table 2, read-out: MIC ASAU 1031
Outline: as §1

[9] = system: E. coli AECO001 (Fluoroquinolone susceptible, ATCC25922); conditions: Escherichia coli, Table 2, 35° C., 20 hours, read-out: MIC AECO 001
Outline: as §1

[10] = system: P. aeruginosa APAE054 (Fluoroquinolone-resistant); conditions: Pseudomonas aeruginosa, Table 2, read-out: MIC APAE 054
Outline: as §1

In the case of `N[C@H]1CC2CC=Cc3c(c(F)cc4c(=O)c(C(=O)O)cn(C5CC5)c34)N2C1` (some centres unmarked) [32 /5], the MIC [1] is reported as no more than 1 µg/mL, the MIC [2] is reported as no more than 1 µg/mL and the MIC [3] is reported as 1 to 8 µg/mL (≈ 2.71 to 21.7 µM). The MIC [4] was greater than 8 µg/mL, the MIC [5] was no more than 1 µg/mL and the MIC [6] was no more than 1 µg/mL. It also gave an MIC [7] greater than 8 µg/mL, an MIC [8] of 1 to 8 µg/mL (≈ 2.71 to 21.7 µM) and an MIC [9] of no more than 1 µg/mL. For the same molecule, the MIC [10] was greater than 8 µg/mL.

Molecule `O=C(O)c1cn(C2CC2)c2c3c(c(F)cc2c1=O)N1CCCC1CCO3` (centres unmarked) [32/1] has an MIC [1] of no more than 1 µg/mL, an MIC [2] of 1 to 8 µg/mL (≈ 2.79 to 22.3 µM) and an MIC [3] greater than 8 µg/mL. For the same molecule, the MIC [4] was greater than 8 µg/mL, the MIC [5] was greater than 8 µg/mL and the MIC [6] was 1 to 8 µg/mL (≈ 2.79 to 22.3 µM). It also gave an MIC [7] greater than 8 µg/mL, an MIC [8] greater than 8 µg/mL and an MIC [9] of no more than 1 µg/mL. For the same molecule, the MIC [10] was greater than 8 µg/mL.

`N[C@H]1C[C@H]2CCOc3c(c(F)cc4c(=O)c(C(=O)O)cn(C5CC5)c34)N2C1` [32/2] gave an MIC [1] of no more than 1 µg/mL, an MIC [2] of no more than 1 µg/mL and an MIC [3] greater than 8 µg/mL. The MIC [4] was greater than 8 µg/mL, the MIC [5] was no more than 1 µg/mL and the MIC [6] was no more than 1 µg/mL. The MIC [7] was greater than 8 µg/mL, the MIC [8] was greater than 8 µg/mL and the MIC [9] was no more than 1 µg/mL. The MIC [10] was greater than 8 µg/mL.

In the case of `N[C@H]1CC2CCCc3c(c(F)cc4c(=O)c(C(=O)O)cn(C5CC5)c34)N2C1` (some centres unmarked) [32/4], the MIC [1] is reported as no more than 1 µg/mL, the MIC [2] is reported as no more than 1 µg/mL and the MIC [3] is reported as 1 to 8 µg/mL (≈ 2.69 to 21.5 µM). The MIC [4] was greater than 8 µg/mL, the MIC [5] was 1 to 8 µg/mL (≈ 2.69 to 21.5 µM) and the MIC [6] was greater than 8 µg/mL. For the same molecule, the MIC [7] was greater than 8 µg/mL, the MIC [8] was greater than 8 µg/mL and the MIC [9] was no more than 1 µg/mL. For the same molecule, the MIC [10] was greater than 8 µg/mL.

`CO/N=C1\CN(c2nc3c(cc2F)c(=O)c(C(=O)O)cn3C2CC2)CC1CN` (centres unmarked) [Gemifloxacin, reference compound] gave an MIC [1] of no more than 1 µg/mL, an MIC [2] of no more than 1 µg/mL and an MIC [3] of 1 to 8 µg/mL (≈ 2.57 to 20.5 µM). It also gave an MIC [4] greater than 8 µg/mL, an MIC [5] of no more than 1 µg/mL and an MIC [6] of no more than 1 µg/mL. For the same molecule, the MIC [7] was greater than 8 µg/mL, the MIC [8] was greater than 8 µg/mL and the MIC [9] was no more than 1 µg/mL. The MIC [10] was greater than 8 µg/mL.
